Data on 41 molecules can be found in patent publication US20230174488A1 (priority 2020, published 2023).

Read-outs that look alike come from different tables or passages of the source.

The term IC50 denotes the concentration needed to halve the response being measured.

The experiment concerns the target SARS-CoV-2 M^PRO (Severe acute respiratory syndrome coronavirus 2, UniProt P0DTD1). The experiment in a line: biochemical. It is filed as biochemical. Conditions: In vitro potency data, 30 min pre-incubation, 25 nM M^pro, 25 µM substrate, read-out: IC50.

Regarding `O=C(NC1CCCCC1)C(c1cccnc1)N(CCc1c[nH]c2ccncc12)C(=O)CCl` (centres unmarked) [INSCoV-516], the IC50 came out at 1180 nM.

In the case of `O=C(N[C@@H]1CCOC1)C(c1cncnc1)N(C(=O)CCl)c1ccc(-c2cnco2)cc1` (some centres unmarked) [INSCoV-600C(2)], the IC50 was 200 nM.

Turning to `O=C(N[C@@H]1CCOC1)[C@H](c1cncnc1)N(C(=O)CCl)c1ccc(-c2cnco2)cc1` [INSCoV-600C(2A)], the half-maximal inhibitory concentration (IC50) turned out to be 450 nM.

On to `O=C(NC1CCC(F)(F)CC1)C(c1cncnc1)N(C(=O)C1CO1)c1ccc(-c2cnco2)cc1` (centres unmarked) [INSCoV-600R], for which the IC50 stood at 12800 nM.

For the molecule `N#Cc1cc(OC(F)(F)F)ccc1N(C(=O)C(F)Cl)C(C(=O)NC1CCC(F)(F)CC1)c1cncnc1` (mixture of isomers) [INSCoV-517C, 2-Chloro-N-(2-cyano-4-(trifluoromethoxy)phenyl)-N-(2-((4,4-difluorocyclohexyl)amino)-2-oxo-1-(pyrimidin-5-yl)ethyl)-2-fluoroacetamide], the IC50 was 110 nM.

As to `O=C(NC1CCC(F)(F)CC1)[C@H](c1cncnc1)N(C(=O)[C@H](F)Cl)c1ccc(-c2cncs2)cc1` (single isomer, unassigned) [INSCoV-614(2A), 2-Chloro-N-(2-((4,4-difluorocyclohexyl)amino)-2-oxo-1-(pyrimidin-5-yl)ethyl)-2-fluoro-N-(4-(thiazol-5-yl)phenyl)acetamide], the IC50 is 6940 nM.

Regarding `O=C(NC1CCC(F)(F)CC1)[C@H](c1cncnc1)N(C(=O)[C@H]1CO1)c1ccc(-c2cnco2)cc1` [INSCoV-600R(1A)], the IC50 is > 25000 nM.

On to `C=CS(=O)(=O)N(c1ccc(C(C)(C)C)cc1)[C@@H](C(=O)NC1CCCCC1)c1cccnc1` [INSCoV-110-1], for which the IC50 stood at 36000 nM.

Turning to `CC(C(=O)NC1CCC(F)(F)CC1)(c1cncnc1)N(C(=O)CCl)c1ccc(-c2ccno2)cc1` (single isomer, unassigned) [INSCoV-601P(1B), 2-(2-Chloro-N-(4-(isoxazol-5-yl)phenyl)acetamido)-N-(4,4-difluorocyclohexyl)-2-(pyrimidin-5-yl)propanamide], the IC50 stood at 13700 nM.

With `N#Cc1cc(OC(F)(F)F)ccc1N(C(=O)CCl)[C@H](C(=O)NC1CCCCC1)c1cccnc1` [INSCoV-517(2)], the IC50 came out at 1940 nM.

With `Cc1cc(-c2cccnc2)cc(F)c1NC(=O)C(c1cncnc1)N(C(=O)CCl)c1ccc(-c2cnco2)cc1` (centres unmarked) [INSCoV-600X], the IC50 came out at 1390 nM.

Regarding `O=C(NC1CCC(F)(F)CC1)C(c1cncnc1)N(C(=O)C1CO1)c1ccc(-c2ccno2)cc1` (centres unmarked) [INSCoV-600Y, N-(2-((4,4-Difluorocyclohexyl)Amino)-2-Oxo-1-(Pyrimidin-5-yl)Ethyl)-N-(4-(Isoxazol-5-yl)Phenyl)Oxirane-2-Carboxamide], the IC50 worked out at 1990 nM.

As for `O=C(NC1CCC(F)(F)CC1)C(c1ccnnc1)N(C(=O)CCl)c1ccc(-c2cncs2)cc1` (centres unmarked) [INSCoV-601F, 2-Chloro-N-(2-((4,4-Difluorocyclohexyl)Amino)-2-Oxo-1-(Pvridazin-4-vl)Ethyl)-N-(4-(Thiazol-5-vl)Phenyl)Acetamide], the IC50 came to 130 nM.

Take `Cc1cc(-c2cnco2)ccc1N(C(=O)CCl)C(C(=O)NC1CCCCC1)c1cncnc1` (centres unmarked) [INSCoV-501G]: the IC50 is 260 nM.

`O=C(NC1CCC(F)(F)C1)C(c1cncnc1)N(C(=O)CCl)c1ccc(-c2cncs2)cc1` (centres unmarked) [INSCoV-601S]: the IC50 is 90 nM.

As to `O=C(NC1CCC(F)(F)CC1)C(c1ccnnc1)N(C(=O)CCl)c1ccc(-c2cnco2)cc1` (centres unmarked) [INSCoV-537I, 2-Chloro-N-(2-((4,4-Difluorocyclohexyl)Amino)-2-Oxo-1-(Pyridazin-4-yl)Ethyl)-N-(4-(Oxazol-5-yl)Phenyl)Acetamide], the IC50 was found to be 270 nM.

In the case of `O=C(NC1CCOCC1)C(c1cccnc1)N(C(=O)CCl)c1ccc(-c2cnco2)cc1` (centres unmarked) [INSCoV-600A(1), 2-Chloro-N-(4-(Oxazol-5-yl)Phenyl)-N-(2-Oxo-1-(Pyridin-3-yl)-2-((Tetrahydro-2H-Pyran-4-yl)Amino)Ethyl)Acetamide], the IC50 is 840 nM.

For `O=C(NC1CCC(F)(F)CC1)C(c1cncnc1)N(C(=O)CCl)c1ccc(-c2cnco2)cc1` (centres unmarked) [INSCoV-501I, 2-Chloro-N-(2-((4,4-difluorocyclohexyl)amino)-2-oxo-1-(pyrimidin-5-yl)ethyl)-N-(4-(oxazol-5-yl)phenyl)acetamide], the IC50 came out at 390 nM.

With `O=C(NC1CCS(=O)(=O)CC1)C(c1cncnc1)N(CCc1cccc(F)c1)C(=O)CCl` (centres unmarked) [INSCoV-558A, 2-Chloro-N-(2-((1,1-Dioxidotetrahydro-2H-Thiopyran-4-yl)Amino)-2-Oxo-1-(Pyrimidin-5-yl)Ethyl)-N-(3-Fluorophenethyl)Acetamide], the IC50 worked out at 470 nM.

For `O=C(NC1CCCCC1)C(c1cccnc1)N(C(=O)CCl)c1ccc2ccoc2c1` (centres unmarked) [INSCoV-576, 2-[Benzofuran-6-yl-(2-chloroacetyl)amino]-N-cyclohexyl-2-(3-pyridyl)acetamide], the IC50 stood at 4670 nM.

Regarding `O=C(N[C@H]1CCOC1)C(c1cncnc1)N(C(=O)CCl)c1ccc(-c2cnco2)cc1` (some centres unmarked) [INSCoV-600C(1)], the IC50 was 270 nM.

As to `O=C(NC1CCC(F)(F)CC1)[C@H](c1cnccn1)N(C(=O)CCl)c1ccc(-c2ccno2)cc1` (racemic) [INSCoV-601H, 2-Chloro-N-(2-((4,4-difluorocyclohexyl)amino)-2-oxo-1-(pyrazin-2-yl)ethyl)-N-(4-(isoxazol-5-yl)phenyl)acetamide], the IC50 came to 100 nM.

Turning to `CC1(NC(=O)C(c2cncnc2)N(C(=O)CCl)c2ccc(-c3cnco3)cc2)COC1` (centres unmarked) [INSCoV-600E, 2-(N-(2-chloroacetyl)-4-oxazol-5-yl-anilino)-N-(3-methyloxetan-3-yl)-2-pyrimidin-5-yl-acetamide], the IC50 turned out to be 570 nM.

Turning to `CC(C(=O)NC1CCC(F)(F)CC1)(c1cnccn1)N(C(=O)CCl)c1ccc(-c2ccns2)cc1` (single isomer, unassigned) [INSCoV-601N(2), 2-(2-Chloro-N-(4-(isothiazol-5-yl)phenyl)acetamido)-N-(4,4-difluorocyclohexyl)-2-(pyrazin-2-yl)propanamide], the IC50 came out at 3490 nM.

In the case of `CC1(C)OCc2cc(N(C(=O)CCl)C(C(=O)Nc3cncc4ccccc34)c3ccno3)cnc21` (centres unmarked) [INSCoV-704], the IC50 was found to be 19400 nM.

On to `O=C(NC1CCC(F)(F)CC1)C(c1cnccn1)N(C(=O)CCl)c1ccc(-c2cnco2)cc1` (centres unmarked) [INSCoV-501S, 2-Chloro-N-(2-((4,4-Difluorocyclohexyl)Amino)-2-Oxo-1-(Pyrazin-2-yl)Ethyl)-N-(4-(Oxazol-5-yl)Phenyl)Acetamide], for which the IC50 amounted to 240 nM.

Turning to `O=C(NC1CCC(F)(F)CC1)[C@H](c1cncnc1)N(C(=O)[C@H](F)Cl)c1ccc(-c2cncs2)cc1` (single isomer, unassigned) [INSCoV-614(1A), 2-Chloro-N-(2-((4,4-difluorocyclohexyl)amino)-2-oxo-1-(pyrimidin-5-yl)ethyl)-2-fluoro-N-(4-(thiazol-5-yl)phenyl)acetamide], the IC50 was > 25000 nM.

For `C#CC(=O)N(c1ccc(C(C)(C)C)cc1)C(C(=O)NC1CCCCC1)c1cccnc1` (centres unmarked) [INSCoV-571], the IC50 worked out at 6280 nM.

Consider `O=C(NC1CCC(F)(F)CC1)C(c1ccnnc1)N(C(=O)CCl)c1ccc(-c2ccno2)cc1` (centres unmarked) [INSCoV-537K, 2-Chloro-N-(2-((4,4-Difluorocyclohexyl)Amino)-2-Oxo-1-(Pyridazin-4-yl)Ethyl)-N-(4-(Isoxazol-5-yl)Phenyl)Acetamide], for which the IC50 is 360 nM.

For `O=C(NC1CCCCC1)C(c1cccnc1)N(C(=O)CCl)c1ccc(N2CCCC2)cc1` (centres unmarked) [INSCoV-523], the IC50 came to 980 nM.

For `O=C(NC1CC(F)(F)C1)C(c1cncnc1)N(C(=O)CCl)c1ccc(-c2cnco2)cc1` (centres unmarked) [INSCoV-600D], the IC50 turned out to be 520 nM.

With `O=C(NC1CCOC1)[C@H](c1cncnc1)N(C(=O)CCl)c1ccc(-c2cncs2)cc1` (some centres unmarked) [INSCoV-601R(1A)], the IC50 (listed as INSCoV-601R(lA)) came to 140 nM.

For the molecule `O=C(NC1CCC(F)(F)CC1)[C@@H](c1cncnc1)N(C(=O)[C@@H]1CO1)c1ccc(-c2cnco2)cc1` [INSCoV-600R(2B)], the IC50 is > 25000 nM.

`CC(C)(C)c1ccc(N(C(=O)CCl)C(C(=O)NC2CCCCC2)c2cnccn2)cc1` (centres unmarked) [INSCoV-538, N-(4-(Tert-Butyl)Phenyl)-2-Chloro-N-(2-(Cyclohexylamino)-2-Oxo-1-(Pyrazin-2-yl)Ethyl)Acetamide]: the IC50 was found to be 280 nM.

Consider `O=C(NC1CCC(F)(F)CC1)[C@@H](c1cncnc1)N(C(=O)CCl)c1ccc(-c2ccccc2)cc1` [INSCoV-601L], for which the IC50 was determined as 300 nM.

In the case of `O=C(NC1CC2(C1)CS(=O)(=O)C2)C(c1cncnc1)N(C(=O)CCl)c1ccc(-c2cnco2)cc1` (centres unmarked) [INSCoV-600H], the IC50 stood at 660 nM.

Regarding `O=C(NC1CCC(F)(F)CC1)[C@@H](c1cncnc1)N(C(=O)[C@H](F)Cl)c1ccc(-c2ccno2)cc1` (single isomer, unassigned) [INSCoV-614A(1A), 2-Chloro-N-(2-((4,4-difluorocyclohexyl)amino)-2-oxo-1-(pyrimidin-5-yl)ethyl)-2-fluoro-N-(4-(isoxazol-5-yl)phenyl)acetamide], the IC50 was 6740 nM.

`CC(=O)c1ccc(NC(=O)[C@@H](c2cnccn2)N(C(=O)CCl)c2ccc(-c3ccns3)cc2)[nH]1` [INSCoV-601M]: the IC50 was 1150 nM.

Turning to `O=C(NC1CCC(F)(F)CC1)[C@H](c1cncnc1)N(C(=O)[C@H](F)Cl)c1ccc(-c2cncs2)cc1` (single isomer, unassigned) [INSCoV-614(2B), 2-Chloro-N-(2-((4,4-difluorocyclohexyl)amino)-2-oxo-1-(pyrimidin-5-yl)ethyl)-2-fluoro-N-(4-(thiazol-5-yl)phenyl)acetamide], the IC50 is 1700 nM.

With `O=C(NCCc1ccccc1)C(c1cnccn1)N(C(=O)CCl)c1ccc(-c2cnco2)cc1` (centres unmarked) [INSCoV-501P, 2-Chloro-N-(4-(Oxazol-5-vl)Phenyl)-N-(2-Oxo-2-(Phenethylamino)-1-(Pyrazin-2-yl)Ethyl)Acetamide], the IC50 was determined as 560 nM.

Take `N#Cc1cc(OC(F)(F)F)ccc1N(C(=O)CCl)C(C(=O)NC1CCC(F)(F)CC1)c1cnccn1` (centres unmarked) [INSCoV-517B]: the IC50 worked out at 170 nM.
